Results on 16 compounds are retold here after patent US5089516A, “1-phenyl-3,5-pyrazolidinedione hydroxystyrene compounds which have tyrosine kinase inhibiting activity” (Kanegafuchi Kagaku Kogyo Kabushiki Kaisha, priority 1987, dated 1992).

Assay [1] deals with T1, 5-lipoxygenase (Cavia porcellus, UniProt A0A286X958).
T1 construct: The cytosol fraction was used as an enzyme solution; from tissue; host or cells: peritoneal exudate cells of casein-injected Hartley guinea pigs, 105,000×g cytosol
T1 sequence (A0A286X958 1-674): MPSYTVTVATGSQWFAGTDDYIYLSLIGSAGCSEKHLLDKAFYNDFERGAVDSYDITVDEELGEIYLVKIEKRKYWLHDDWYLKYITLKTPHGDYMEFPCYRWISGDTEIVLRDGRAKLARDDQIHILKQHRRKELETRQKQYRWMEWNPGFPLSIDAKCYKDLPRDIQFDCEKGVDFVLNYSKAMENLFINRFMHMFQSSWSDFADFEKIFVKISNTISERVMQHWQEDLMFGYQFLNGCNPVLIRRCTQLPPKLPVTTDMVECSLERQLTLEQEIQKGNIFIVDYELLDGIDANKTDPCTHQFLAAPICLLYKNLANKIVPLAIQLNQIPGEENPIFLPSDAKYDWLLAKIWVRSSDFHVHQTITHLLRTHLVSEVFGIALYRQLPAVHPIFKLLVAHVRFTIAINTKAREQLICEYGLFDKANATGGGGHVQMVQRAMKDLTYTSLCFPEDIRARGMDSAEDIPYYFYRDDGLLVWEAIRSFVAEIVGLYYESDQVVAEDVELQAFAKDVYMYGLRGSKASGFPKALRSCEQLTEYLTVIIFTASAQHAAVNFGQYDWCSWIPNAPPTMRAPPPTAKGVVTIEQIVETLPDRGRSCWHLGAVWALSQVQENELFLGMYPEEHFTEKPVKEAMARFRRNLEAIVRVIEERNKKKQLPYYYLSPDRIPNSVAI
As to the kind of experiment: 5-Lipoxygenase inhibiting activity (5-HETE formation, cytosol of peritoneal exudate cells). In kind it is biochemical, Hartley guinea pigs. The settings on record: read-out: Inhibition rate (5-lipoxygenase); for inhibition at 1 µM: 1 μM in the reaction mixture; for inhibition at 10 µM: 10 μM in the reaction mixture. As to the method: 5-Lipoxygenase inhibiting activity of the compound of the present invention was measured referring to the method for measuring 5-lipoxygenase activity by K. Ochi et al. [Journal of Biological Chemistry (J. Biol. Chem.), 258, 5754(1983)].
Sterilized 2% solution of casein (pH 7) was injected intraperitoneally into Hartley guinea pigs in a volume of 5 ml/100 g body weight. Fifteen hours later, the guinea pigs were killed and peritoneal exudate cells thereof were collected. After the exudate cells were washed with 17 mM Tris--HCl buffer (pH 7.4) containing 0.74% ammonium to remove contaminating erythrocytes in the exudate cells suspension, the cells were washed with buffer A (130 mM NaCl, 1 mM EDTA, 25 mM sodium phosphate, pH 7.4). The washed cells were suspended in buffer B (50 mM sodium phosphate, 1 mM EDTA, 0.1% gelatin, pH 7.4) at 10^8 cells/ml, sonicated and centrifuged at 10,000×g for 20 minutes under the cold atmosphere. The obtained supernatant was further centrifuged at 105,000×g for 60 minutes under the cold atmosphere. The cytosol fraction was used as an enzyme solution.
The enzyme solution was preincubated with the […] in the presence of 1 mM CaCl2, 1 mM reduced gluthathione (GSH) and 2 mM ATP at 30° C. for 5 minutes in 0.2 ml of a reaction mixture and the mixture was further incubated at 30° C. for 5 minutes by adding 20 μM [1-^14 C] arachidonic acid (0.1 μCi) thereto. The test compounds were dissolved in ethanol to give the reaction mixture containing 2% ethanol as a final concentration. Only ethanol was added to the reaction mixture as a control group.
To the reaction mixture were added 2.5 ml of a mixture of chloroform and methanol (2/1 by volume) and 0.3 ml of 40 mM citric acid to stop the reaction. The mixture was vortexed and an organic solvent layer was evaporated to dryness under nitrogen gas. After dissolving the dried organic layer in a fixed amount of the mixture of chloroform and methanol (2/1 by volume), it was spotted on a silica gel plate (Kiesel gel 60F254, E. Merck) and products were separated using a developer (the organic solvent layer of ethyl acetate/water/2,2,4-trimethylpentane/acetic acid=11/10/5/2 by volume). After the radioactive position of the product was determined by means of a radioautography, an area equivalent to that of 5-hydroxyeicosatetraenoic acid (hereinafter referred to as "5-HETE") was scraped off, and then its radioactivity was measured with a liquid scintillation counter. With regarding the amount of the generated 5-HETE as the 5-lipoxygenase inhibiting activity, the inhibition rate (%) in comparison with the control group was calculated according to the following equation. [formula]

Assay [2] deals with T2, epidermal growth factor receptor-tyrosine kinase complex (Homo sapiens, UniProt P00533).
T2 construct: The membrane preparation was employed in the following measurement without solubilization; endogenous in cells; host or cells: A-431 (ATCC CRL1555), membrane preparation, not solubilized
T2 sequence (P00533 25-1210, one chain of several): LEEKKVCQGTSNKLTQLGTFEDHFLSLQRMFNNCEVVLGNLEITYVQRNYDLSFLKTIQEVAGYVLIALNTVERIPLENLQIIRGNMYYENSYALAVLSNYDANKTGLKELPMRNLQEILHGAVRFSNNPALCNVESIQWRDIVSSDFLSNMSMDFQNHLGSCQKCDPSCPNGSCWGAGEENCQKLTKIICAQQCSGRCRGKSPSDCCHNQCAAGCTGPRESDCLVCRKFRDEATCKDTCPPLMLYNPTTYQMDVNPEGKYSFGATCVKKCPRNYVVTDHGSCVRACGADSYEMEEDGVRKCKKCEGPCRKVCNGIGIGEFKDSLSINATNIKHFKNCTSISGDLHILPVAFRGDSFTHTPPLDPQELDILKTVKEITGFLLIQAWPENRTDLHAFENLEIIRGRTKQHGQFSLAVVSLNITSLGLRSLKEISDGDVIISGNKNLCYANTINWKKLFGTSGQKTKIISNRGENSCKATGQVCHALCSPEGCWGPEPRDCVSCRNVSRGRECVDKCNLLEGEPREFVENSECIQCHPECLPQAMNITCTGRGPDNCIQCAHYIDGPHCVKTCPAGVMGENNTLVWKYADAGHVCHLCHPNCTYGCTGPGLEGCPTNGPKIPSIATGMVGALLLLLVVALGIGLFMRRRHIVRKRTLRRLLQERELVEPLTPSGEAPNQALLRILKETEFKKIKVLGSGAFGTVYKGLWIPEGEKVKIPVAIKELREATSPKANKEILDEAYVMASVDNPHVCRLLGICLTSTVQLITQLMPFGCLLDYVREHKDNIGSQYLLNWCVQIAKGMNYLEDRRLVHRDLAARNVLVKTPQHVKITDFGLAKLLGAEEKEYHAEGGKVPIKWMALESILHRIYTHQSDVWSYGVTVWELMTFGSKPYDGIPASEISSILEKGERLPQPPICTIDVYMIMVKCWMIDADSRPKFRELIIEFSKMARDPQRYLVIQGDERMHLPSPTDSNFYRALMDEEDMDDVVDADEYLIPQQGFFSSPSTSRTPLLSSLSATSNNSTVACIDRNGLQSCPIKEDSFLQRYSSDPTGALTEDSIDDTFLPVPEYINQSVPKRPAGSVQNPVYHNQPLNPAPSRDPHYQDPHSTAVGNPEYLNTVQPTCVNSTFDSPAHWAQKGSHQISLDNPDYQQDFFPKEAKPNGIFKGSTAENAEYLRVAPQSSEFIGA
As to the kind of experiment: Tyrosine kinase inhibiting activity (A-431 membrane preparation, EGF-stimulated). The assay is classed as biochemical. The settings on record: read-out: Tyrosine kinase inhibition rate; for inhibition at 1 µM: 1 μM in the reaction mixture; for inhibition at 10 µM: 10 μM in the reaction mixture. The protocol:
Tyrosine kinase inhibiting activity of the compound of the present invention was measured referring to a method for measuring tyrosine kinase activity by G. Carpenter or by S. Cohen et al. [J. Biol. Chem., 254, 4884(1979); J. Biol. Chem., 257, 1528(1982)].
Cell line A-431 derived from human carcinoma (ATCC CRL1555) was cultured at 37° C. under the condition of 5% CO2 in Dulbecco's modified Eagle's medium (made by NISSUE PHARMACEUTICAL CO., LTD.) containing 10% by volume fetal bovine serum, 50 μg/ml of streptomycin, 50 IU/ml of penicillin G and 50 μg/ml of kanamycin. […] The membrane preparation was employed in the following measurement without solubilization.
A test compound dissolved in dimethylsulfoxide (hereinafter referred to as "DMSO") was added to a mixture of 20 mM of N-2-hydroxyethylpiperazine-N'-2-ethanesulfonic acid buffer (pH 7.4), 1 mM of MnCl2, 7.5 μg of bovine serium albumin and the membrane preparation (10 μg as protein). After incubation at 0° C. for 5 minutes, 100 ng of epidermal growth factor (hereinafter referred to as "EGF") was added thereto and the mixture was further incubated at 0° C. for 15 minutes. [γ-^32 P]ATP (3000 Ci/mmol, 0.1 μCi) was added thereto to make final volume of 70 μl. After incubation at 0° C. for 15 minutes, 50 μl of the reaction mixture was soaked into Whatman 3 MM filter paper (made by Whatman Ltd.) and immediately the reaction was stopped by an aqueous solution of 10% by weight trichloroacetic acid containing 10 mM sodium pyrophosphate. The filter paper was sufficiently washed with the same solution and then washed with ethanol, and dried. Radioactivity present in the filter paper was measured by liquid scintillation counter (A). Also, radioactivity was measured in case of the reaction without EGF (B), the reaction without the test compound (C), and the reaction without both EGF and the test compound (D) as a control.
Tyrosine kinase inhibition rate (%) was calculated by the following equation. [formula]

For assay [3], the system named is antigen-induced airway constriction. As to the kind of experiment: Inhibitory activity against antigen-induced airway constriction in actively sensitized guinea pigs. The assay is classed as in vivo. Particulars: Cavia porcellus, iv, 3 minutes before antigen inhalation, read-out: Inhibition rate (airway constriction). The protocol:
(3) Inhibitory activity against antigen-induced airway constriction in actively sensitized guinea pigs
That is, the sensitized guinea pigs (5 guinea pigs/group) were provided with artificial respiration by inserting a tracheal cannula under urethane anesthesia (1.5 g/kg body weight, intraperitoneal administration), and then, gallamine at 1 mg/kg body weight was injected intravenously to stop spontaneous respiration of the guinea pigs. Inhalation of 0.5% aqueous solution of ovalbumin was conducted using a nebulizer for 1 minute to increase antigen-induced airway constriction, at the same time, airway pressure was recorded through a transducer. Test compound was administered into jugular vein (i.v.) of the guinea pig 3 minutes before the antigen inhalation or administered orally (p.o.) 2 hours before the antigen inhalation. As a positive control compound, theophylline which was a drug for anti-asthma was used. The effect of the compound was estimated by calculating the maximum value of airway constriction (%) in comparison with the control group, according to the following equation. [formula]

In assay [4] the target is T3, reverse transcriptase derived from Moloney-Murine Leukemia Virus (M-MLV) (Moloney murine leukemia virus, UniProt P03355).
T3 construct: reverse transcriptase derived from Moloney-Murine Leukemia Virus; purchased Pharmacia K. K
As to the kind of experiment: Inhibiting activity against reverse transcriptase derived from M-MLV. The assay is classed as biochemical. The settings on record: read-out: Inhibition rate (reverse transcriptase derived from M-MLV); for inhibition at 10 µM: 10 μM in the reaction mixture. As to the method: There was found the following point by using reverse transcriptase derived from Moloney-Murine Leukemia Virus (hereinafter referred to as "M-MLV").
The compound of the present invention was dissolved in DMSO to give a 100 mM solution thereof. Then, the solution was diluted with distilled water containing DMSO to give a solution of the test compound having a defined concentration. A mixed ratio of DMSO and distilled water was adjusted so that the concentration of DMSO at this time is 10% by volume and a final concentration of DMSO at the beginning of a reaction is 1% by volume.
The thus prepared solution of the test compound was mixed with a solution containing 50 mM of Tris--HCl buffer (pH 8.3), 8 mM of MgCl2, 30 mM of NaCl, 50 mM of dithiothreitol (made by Wako Pure Chemical Industries Ltd.), 0.2 mM of thymidine-5'-triphosphate (made by Pharmacia K. K.) and 6 U/ml of reverse transciptase derived from M-MLV (made by Pharmacia K. K.), and preincubated at 37° C. for 30 minutes. After there was added thereto 10 μg/ml of polyadenylic acid (made by PL Biochemicals Co., Ltd.), 0.01 U/ml of oligodeoxy thymidylic acid (made by Pharmacia K. K.) and 10 μCi/ml of [methyl-^3 H] thymidine-5'-triphosphate (made by Amersham Japan Co., Ltd., 47 Ci/mmol) to give a reaction mixture, the mixture was further incubated at 37° C. for 30 minutes, followed by cooling with ice to stop the reaction.
The radioactivity incorporated into deoxyribonucleic acids was measured according to the method of Linteril et al (Science 170, 447 to 449 (1967)). A defined volume of the reaction mixture was soaked into DE-81 filter paper (made by Whatman Ltd.), the filter paper was washed with 5% by weight of Na2 HPO4 solution for three times, and with distilled water and ethanol successively, and then dried. Radioactivity contained in the filter paper was measured by liquid scintillation counter to give the each radioactivity of the test solution groups.
On the other hand, the same procedure as above was carried out using DMSO-distilled water without the test compound instead of using the test solution, to give the value of radioactivity of a control group.
Reverse transcriptase derived from M-MLV inhibition rate (%) was calculated by the following equation. [formula]

The test system of assay [5] is Nycobacterium smegmatis ATCC 607. As to the kind of experiment: Antibacterial activity (MIC) against acid-fast bacteria. Particulars: 37° C., 40 to 42 hours. In kind it is cell-based. As to the method: As for acid-fast bacteria, after cultured in glycerol broth medium, there was prepared a bacterial suspension for inoculation containing about 10^6 of the bacteria per 1 ml of the medium. On the other hand, there were prepared some glycerol Czapek agar plating media with adding the test compounds, and thereto the bacterial suspension for inoculation was streaked.

SMILES strings stand for the structures. Some results are limits rather than exact numbers.

For the compound `COc1cc(C=C2C(=O)Nc3ccccc32)cc(Cc2ccccc2)c1O` [Compound 13], in assay [1], the inhibition at 1 µM came out at 86%.

For the compound `O=C1OCCC1=Cc1cc(Cc2ccccc2)c(O)c(Cc2ccccc2)c1` [Compound 17], the inhibition at 1 µM in assay [2] amounted to 25%.

`O=C1Nc2ccccc2C1=Cc1cc(CSc2ccccc2)c(O)c(OCc2ccccc2)c1` [Compound 12]: the inhibition in vivo at 1 mg/kg in assay [3] (1 mg/kg) worked out at 32%. Further, the inhibition at 1 µM in assay [1] turned out to be 84%. For the same compound, the inhibition at 10 µM in assay [2] stood at 30%.

Consider `O=C1Nc2ccccc2C1=Cc1cc(-c2ccccc2)c(O)c(-c2ccccc2)c1` [Compound 3], for which the inhibition at 1 µM in assay [2] was determined as 45%.

On to `COc1cc(C=C(C#N)C(N)=O)cc(Cc2ccccc2)c1O` [Compound 22], for which, in assay [1], the inhibition at 10 µM is 63%. Besides, the inhibition at 1 µM in assay [2] was found to be 84%.

Regarding `CC(C)c1cc(C=C2SC(NCc3ccc([N+](=O)[O-])cc3)=NC2=O)cc(C(C)C)c1O` [Compound 40], the inhibition at 10 µM stood at 87% in assay [1] and 21% in assay [2].

For the compound `CCCCOc1cc(C=C2SC(NCc3ccccc3)=NC2=O)cc(CSc2ccccc2)c1O` [Compound 29], the figures for the inhibition at 1 µM in assay [1] and in assay [2] were 86% and 63%, respectively.

As for `O=C1Nc2ccccc2S(=O)(=O)C1=Cc1cc(Cc2ccccc2)c(O)c(Cc2ccccc2)c1` [Compound 5], the inhibition at 1 µM in assay [2] was 42%. For the same compound, the inhibition at 10 µM in assay [4] came out at 87%.

`CCOc1cc(C=C2SC(NCc3ccccc3)=NC2=O)cc(CSc2ccccc2)c1O` [Compound 28] returned an MIC in assay [5] of no more than 15 µg/mL. In addition, the inhibition at 1 µM in assay [2] came to 66%.

Turning to `CC(C)c1cc(C=C2SC(NCc3ccco3)=NC2=O)cc(C(C)C)c1O` [Compound 43], the inhibition in vivo at 5 mg/kg in assay [3] (5 mg/kg) is 21%. In addition, the inhibition at 1 µM in assay [1] was 53%. In addition, the inhibition at 10 µM in assay [2] came to 95%.

In the case of `O=C1N=C(NCc2ccccc2)SC1=Cc1cc(-c2ccccc2)c(O)c(-c2ccccc2)c1` [Compound 25], the inhibition at 1 µM in assay [1] was 23%. The inhibition at 10 µM in assay [2] came to 72%.

Consider `O=C1N=C(NCc2ccco2)SC1=Cc1cc(O)c(O)c(CSc2ccccc2)c1` [Compound 27], for which the inhibition at 1 µM was found to be 58% in assay [2] and 73% in assay [4] (1 μM in the reaction mixture).

For `CCOc1cc(C=C(C#N)C(N)=O)cc(Cc2ccccc2)c1O` [Compound 21], in assay [2], the inhibition at 1 µM is 98%.

Compound `CC(C)c1cc(C=C2SC(NCc3cccs3)=NC2=O)cc(C(C)C)c1O` [Compound 44] had an MIC in assay [5] of no more than 6 µg/mL. In addition, the inhibition at 1 µM in assay [2] was 80%.

With `CCOc1cc(C=C2SC(=S)NC2=O)cc(CSc2ccccc2)c1O` [Compound 6], in assay [4], the inhibition at 10 µM amounted to 98%.

As to `CCCCOc1cc(C=C2C(=O)Nc3ccccc32)cc(Cc2ccccc2)c1O` [Compound 14], the inhibition at 1 µM in assay [1] was determined as 27%; in assay [2], 43%.
